In US6979684B1, “Pyrrolo[2,1-c][1,4]benzodiazepine-napthalimide conjugates linked through piperazine moiety and process for preparation thereof” (Council of Scientific and Industrial Research, priority 2004, dated 2005):

Legend:
CT-DNA = experiment: DNA Thermal Denaturation Studies; assay type: binding; conditions: 1:5 [PBD]/[DNA], CT-DNA 100 μM, ligand 20 μM, sodium phosphate buffer pH 7.00, values ±0.1–0.2° C.; for Induced […]Tm ° C. after incubation at 37° C. 0 h: 0 h at 37° C.; for Induced […]Tm ° C. after incubation at 37° C. 18 h: 18 h at 37° C.
Procedure: For CT-DNA alone at pH 7.00±0.01, Tm=69.8° C.±0.01 (mean value from 10 separate determinations), all ΔTm values are ±0.1–0.2° C. For a 1:5 molar ratio of [PBD]/[DNA], where CT-DNA concentration=100 μM and ligand concentration=20 μM in aqueous sodium phosphate buffer [10 mM sodium phosphate+1 mM EDTA, pH 7.00±0.01].

A-549 = experiment: In vitro cytotoxicity (SRB), percentage growth inhibition, A-549; assay type: cell-based, human; conditions: A-549 (lung), 48 hours
Procedure: (§1) In vitro cytotoxicity against human cancer cell lines: The human cancer cell lines procured from National Cancer Institute, Frederick, U.S.A or National Center for Cell Science; Pune, India. were used in present study. Cells were grown in tissue culture flasks in complete growth medium (RPMI-1640 medium with 2 mM glutamine, 100 μg/ml streptomycin, pH 7.4, sterilized by filtration and supplemented with 10% fetal calf serum and 100 units/ml penicillin before use) at 37° C. in an atmosphere of 5% CO2 and 90% relative humidity in a carbon dioxide incubator. The cells at subconfluent stage were harvested from the flask by treatment with trypsin (0.5% in PBS containing 0.02% EDTA) for determination of cytotoxicity. Cells with viability of more than 98% as determined by trypan blue exclusion were used for assay. The cell suspension of the required cell density were prepared in complete growth medium with gentamycin (50 μg/ml) for determination of cytotoxicity.
(§2) A stock solutions of (2×10^−2 M) of test material were prepared in DMSO. The stock solutions were serially diluted with complete growth medium containing 50 μg/ml of gentamycin to obtain working test solutions of required concentrations.
(§3) In vitro cytotoxicity against human cancer cell lines was determined (Monks, A., Scudiero, D., Skehan, P, Shoemaker R., Paull, K., Vistica, D., Hose, C., Langley, J., Cronise, P., Vaigro-Wolff, A., Gray-Goodrich, M., Campbell, H., Mayo, J and Boyd M. J. Natl. Cancer Inst., 1991, 83, 757–766) using 96-well tissue culture plates. The 100 μl of cell suspension was added to each well of the 96-well tissue culture plate. The cells were incubated for 24 hours. Test materials in complete growth medium (100 μl) were added after 24 hours incubation to the wells containing cell suspension. The plates were further incubated for 48 hours (at 37° C. in an atmosphere of […] 90% relative humidity in a carbon dioxide incubator) after addition of test material and then the cell growth was stopped by gently layering trichloroacetic acid (TCA, 50 μl, 50%) on top of the medium in all the wells. The plates were incubated at 4° C. for one hour to fix the cells attached to the bottom of the wells. The liquid of all the wells was gently pipetted out and discarded. The plates were washed five times with distilled water to remove TCA, growth medium low molecular weight metabolites, serum proteins etc and air-dried. Cell growth was measured by staining with sulforhodamine B dye (Skehan et al., 1990). The adsorbed dye was dissolved in Tris-Buffer ([…], 0.01 M, pH 10.4) and plates were gently stirred for 5 minutes on a mechanical stirrer. The optical density was recorded on ELISA reader at 540 nm.
(§4) The cell growth was calculated by subtracting mean OD value of respective blank from the mean OD value of experimental set. Percent growth in presence of test material was calculated considering the growth in absence of any test material as 100% and in turn percent growth inhibition in presence of test material will be calculated.

HCT-15 = experiment: In vitro cytotoxicity (SRB), percentage growth inhibition, HCT-15; assay type: cell-based, human; conditions: HCT-15 (colon), 48 hours
Procedure: as §1, §2, §3, §4

SiHa = experiment: In vitro cytotoxicity (SRB), percentage growth inhibition, SiHa; assay type: cell-based, human; conditions: SiHa (cervix), 48 hours
Procedure: as §1, §2, §3, §4

HOP-62 = experiment: In vitro cytotoxicity (SRB), percentage growth inhibition, HOP-62; assay type: cell-based, human; conditions: HOP-62 (lung), 48 hours
Procedure: as §1, §2, §3, §4

HT-29 = experiment: In vitro cytotoxicity (SRB), percentage growth inhibition, HT-29; assay type: cell-based, human; conditions: HT-29 (colon), 48 hours
Procedure: as §1, §2, §3, §4

SMILES | Induced […]Tm ° C. after incubation at 37° C. 0 h (CT-DNA) | Induced […]Tm ° C. after incubation at 37° C. 18 h (CT-DNA) | percentage growth inhibition A-549 (A-549; 10^−4 mol/L) | percentage growth inhibition HCT-15 (HCT-15; 10^−5 mol/L) | percentage growth inhibition HCT-15 (HCT-15; 10^−6 mol/L) | percentage growth inhibition SiHa (SiHa; 10^−5 mol/L) | percentage growth inhibition SiHa (SiHa; 10^−6 mol/L) | percentage growth inhibition HOP-62 (HOP-62; 10^−5 mol/L) | percentage growth inhibition HOP-62 (HOP-62; 10^−6 mol/L) | percentage growth inhibition HT-29 (HT-29; 10^−4 mol/L) | percentage growth inhibition HT-29 (HT-29; 10^−5 mol/L) | percentage growth inhibition HT-29 (HT-29; 10^−6 mol/L) | percentage growth inhibition SiHa (SiHa; 10^−4 mol/L) | percentage growth inhibition A-549 (A-549; 10^−5 mol/L) | percentage growth inhibition A-549 (A-549; 10^−6 mol/L) | percentage growth inhibition HOP-62 (HOP-62; 10^−4 mol/L)
COc1cc2c(cc1O)N=CC1CCCN1C2=O (centres unmarked) [DC-81, reference compound] | 0.3 °C | 0.7 °C |  |  |  |  |  |  |  |  |  |  |  |  |  | 
COc1cc2c(cc1OCCN1CCN(CCN3C(=O)c4cccc5cccc(c45)C3=O)CC1)N=C[C@@H]1CCCN1C2=O [VIIIa, 7-Methoxy-8-{2-[4-[2-(1,3-dioxo-benz[de]isoquinolin-2-yl)ethyl]piperazin-1-yl]ethyl}-oxy-(11aS)-1,2,3,11a tetrahydro-5H-pyrrolo[2,1-c][1,4]benzodiazepin-5-one] | 21.9 °C | 22.7 °C |  |  |  |  |  |  |  |  |  |  |  |  |  | 
COc1cc2c(cc1OCCCN1CCN(CCN3C(=O)c4cccc5cccc(c45)C3=O)CC1)N=C[C@@H]1CCCN1C2=O [VIIIb, 7-Methoxy-8-{3-[4-[2-(1,3-dioxo-benz[de]isoquinolin-2-yl)ethyl]piperazin-1-yl]propyl}-oxy-(11aS)-1,2,3,11a tetrahydro-5H-pyrrolo[2,1-c][1,4]benzodiazepin-5-one] | 25.8 °C | 26.7 °C | 88% | 59% | 58% | 44% | 54% | 86% | 72% | 88% | 85% | 91% |  |  |  | 
COc1cc2c(cc1OCCCCN1CCN(CCN3C(=O)c4cccc5cccc(c45)C3=O)CC1)N=C[C@@H]1CCCN1C2=O [VIIIc, 7-Methoxy-8-{4-[4-[2-(1,3-dioxo-benz[de]isoquinolin-2-yl)ethyl]piperazin-1-yl]butyl}-oxy-(11aS)-1,2,3,11a tetrahydro-5H-pyrrolo[2,1-c][1,4]benzodiazepin-5-one] | 23.4 °C | 24.2 °C | 95% | 69% | 60% | 39% |  | 93% | 86% | 94% | 86% | 80% | 56% |  |  | 
COc1cc2c(cc1OCCCN1CCN(CCCN3C(=O)c4cccc5cccc(c45)C3=O)CC1)N=C[C@@H]1CCCN1C2=O [VIIId, 7-Methoxy-8-{3-[4-[3-(1,3-dioxo-benz[de]isoquinolin-2-yl)propyl]piperazin-1-yl]propyl}-oxy-(11aS)-1,2,3,11a tetrahydro-5H-pyrrolo[2,1-c][1,4]benzodiazepin-5-one] | 13.1 °C | 14.3 °C | 95% |  |  | 65% | 31% |  |  | 95% | 62% | 63% | 85% | 30% | 51% | 78%
COc1cc2c(cc1OCCCCN1CCN(CCCCN3C(=O)c4cccc5cccc(c45)C3=O)CC1)N=C[C@@H]1CCCN1C2=O [VIIIe, 7-Methoxy-8-{4-[4-[4-(1,3-dioxo-benz[de]isoquinolin-2-yl)butyl]piperazin-1-yl]butyl}-oxy-(11aS)-1,2,3,11a tetrahydro-5H-pyrrolo[2,1-c][1,4]benzodiazepin-5-one] | 20.9 °C | 21.7 °C | 93% | 62% | 59% | 40% | 44% | 93% | 80% | 92% | 78% | 67% | 42% |  |  | 
